Measured values reported in ChEMBL document CHEMBL5104146, “Anti-inflammatory and anticancer p-terphenyl derivatives from fungi of the genus Thelephora” (Bioorg Med Chem, 2022).

Columns and labels:
[1] = Inhibition of Escherichia coli FabK using t-o-NAC as substrate in presence of NADPH by […]
[2] = Inhibition of 17beta-HSD1 (unknown origin); set-up: species or system Homo sapiens
[3] = Inhibition of Streptococcus pneumoniae FabK using t-o-NAC as substrate in presence of NADPH by […]
[4] = Inhibition of Staphylococcus aureus FabK using t-o-NAC as substrate in presence of NADPH by […]
[5] = Antioxidant activity assessed as DPPH radical scavenging activity by absorbance based analysis; type: functional
[6] = tested on: HepG2; experiment: Antiproliferative activity against human HepG2 cells assessed as cell growth inhibition measured after 48 hrs; type: functional, cell-based; settings: HepG2, 48 h
[7] = Inhibition of Saccharomyces cerevisiae alpha-glucosidase using pNPG as substrate preincubated for 10 mins followed by substrate addition measured after 15 mins by absorbance based microplate reader analysis
[8] = Antioxidant activity assessed as DPPH radical scavenging activity measured after 30 mins under dark condition by microplate reader analysis; type: functional
[9] = Inhibition of TNF-alpha production in rat RBL-2H3 cells; type: functional, cell-based
[10] = tested on: L929; experiment: Cytotoxicity against mouse L929 cells assessed as cell growth inhibition; type: functional, cell-based
[11] = tested on: KB 3-1; experiment: Cytotoxicity against human KB 3-1 cells assessed as cell growth inhibition; type: functional, cell-based

## O=C1C(O)=C(c2ccc(O)cc2)C(=O)C(O)=C1c1ccc(O)cc1
[1]
  IC50: > 200 µM
[2]
  EC50: > 100 µM
[3]
  IC50: 240 nM
[4]
  IC50: > 200 µM

## O=C(Cc1ccccc1)Oc1c(O)c(-c2ccc(O)cc2)c(OC(=O)c2ccc(O)cc2)c(O)c1-c1ccc(O)cc1
[5]
  EC50: 28 nM

## O=C(Cc1ccccc1)Oc1c(OC(=O)c2ccccc2)c(-c2ccc(O)cc2)c(O)c(O)c1-c1ccc(O)cc1
[6]
  IC50: 7 µM

## O=C(Oc1c(O)c(-c2ccc(O)cc2)c(OC(=O)c2ccccc2)c(O)c1-c1ccc(O)cc1)c1ccccc1
[7]
  IC50: > 50 µM

## COC1=C(c2ccc(O)cc2)C(=O)C(OC(=O)c2ccccc2)=C(c2ccc(O)cc2)C1=O
[7]
  IC50: 18.8 µM
[8]
  EC50: 150 µM

## CC(=O)Oc1c(OC(=O)c2ccccc2)c(-c2ccc(O)cc2)c(O)c(O)c1-c1ccc(O)cc1
[7]
  IC50: 0.99 µM

## O=C(Oc1c(OC(=O)c2ccccc2)c(-c2ccc(O)cc2)c(OC(=O)c2ccccc2)c(O)c1-c1ccc(O)cc1)c1ccccc1
[7]
  IC50: 4.53 µM

## O=C1O[C@H]([C@@H](O)CO)C(O)=C1O [ASCORBIC ACID]
[5]
  EC50: 270 nM

## O=C(Cc1ccccc1)Oc1c(OC(=O)Cc2ccccc2)c(-c2ccc(O)cc2)c(O)c(O)c1-c1ccc(O)cc1 [VIALININ A]
[6]
  IC50: 7 µM
[9]
  IC50: 0.02 nM

## CC(=O)Oc1c(OC(=O)c2ccccc2)c(-c2ccc(O)cc2)c(OC(=O)c2ccccc2)c(OC(=O)c2ccccc2)c1-c1ccc(O)cc1
[7]
  IC50: 2.98 µM

## O=C1C(O)=C(c2ccc(O)c(O)c2)C(=O)C(O)=C1c1ccc(O)cc1
[10]
  IC50: 17 µM
[11]
  IC50: 7 µM
[3]
  IC50: 1570 nM

## O=C(Oc1c(O)c(-c2ccc(O)cc2)c(OC(=O)c2ccc(O)cc2)c(O)c1-c1ccc(O)cc1)c1ccc(O)cc1
[9]
  IC50: 3.5 nM
